Marks after values point to notes of the source that are not given here.
Assays:
[1] = test system: mutant SOD1-overexpressing fish; assay: mutant SOD1-induced motor axonopathy in zebrafish embryos (percentage affected embryos, motor axon length); type: in vivo; conditions: 30 hpf
From the text: FIG. 1: EphA4 knockdown rescues mutant SOD1-induced motor axonopathy. […] Abnormal branching is indicated with arrowhead. Y-axes show motor axon length of zebrafish embryos expressing wild-type SOD1 (black bar, Panels D-G) or mutant SOD1 (white bar, Panels D-G). Knockdown of RTK2 in SOD1A4V- (Panel D), SOD1G93A- (Panel E) and SOD1G37R- (Panel F) expressing fish was established by co-injection of increasing amounts of atg-RTK2 morpholino (shaded bars). RTK1 expression was inhibited in SOD1A4V-expressing fish by co-injection of atg-RTK1 morpholino (shaded bars, Panel G). Ctr-RTK2 and ctr-RTK1 were used as control. ANOVA and Bonferroni's multiple comparison tests were used for statistical analysis. Comparing axonal length in SOD1A4V fish injected with ctr-RTK2 (n=39) vs. different doses atg-RTK2: 3 ng (n=43, p=0.0059), 4.5 ng (n=37, p=0.0016, Panel D), SOD1G93A: ctr-RTK2 (n=60) vs. atg-RTK2: 1.5 ng (n=55, p=0.015), 3 ng (n=51, p=2.82×10-9), 4.5 ng (n=46, p=2.22×10-15, Panel E), SOD1G37R: ctr-RTK2 (n=37) vs. atg-RTK2: 3 ng (n=25, p=0.027), 4.5 ng (n=36, p=0.0018, Panel F) and SOD1A4V: ctr-RTK1 (n=49) vs. atg-RTK1: 1.5 ng (n=51, p=2.51×10-7), 3 ng (n=64, p=7.99×10-10), 4.5 ng (n=54, p<1×10-20, Panel G). Western blot of SOD1WT or SOD1A4V (1.76 ng) expressing zebrafish embryos (30 hpf), co-injected with either ctr-RTK1 or atg-RTK1 (4.5 ng). Sixty embryos were used per group with actin as the loading control (H). Immunostaining of rtk1 (green) in rhombomeres 3 and 5 and of ephrin-b2 (magenta) in rhombomere 4 in zebrafish embryos injected with either ctr-RTK1 or atg-RTK1 (4.5 ng). RTK1-depleted embryos show disorganized rhombomere boundaries (arrowhead, I, Scale bar 50 μm). Error bars are s.e.m.
FIG. 2: RTK2 knockdown protects motor axons against SOD1^A4V-induced injury. Effect of RTK2 knockdown, established by injection of splice-rtk2 morpholino, on the motor axon length of SOD1^A4V-expressing zebrafish embryos (30 hpf). SOD1^WT-expressing fish and a non-functional five-base pair-mismatch control morpholino (ctr-RTK2) were used as control (Panel A). ANOVA and Bonferroni's multiple comparison tests were used for statistical analysis: SOD1^A4V/ctr-RTK2 (n=56) vs. SOD1^A4V/spl-RTK2 (n=60, 1.79×10^−4). Spl-RTK2 was designed against the exon 2 splice site of the zebrafish RTK2 pre-mRNA and alternatively skipped out exon 2. RT-PCR on non-transgenic fish (lane 1), ctr-RTK2-injected fish (lane 2) and spl-RTK2-injected fish (lane 3) at 30 hpf. Functional RTK2 mRNA, containing exon 2, is indicated by the 818-bp product (upper band) while non-functional RTK2 mRNA, lacking exon 2 is indicated by the 156-bp product (lower band), 60 embryos each group (Panel B). Error bars are s.e.m.
FIG. 12: Pharmacological inhibition of EphA4 receptor signaling protects against mutant SOD1 pathology in vivo. Effect of treatment with Compound 1 (C1, 500 μM) on the motor axon length of zebrafish embryos (30 hpf). DMSO (1/250 dilution) was used as control (Panel A). ANOVA and Bonferroni's multiple comparison tests were used for statistical analysis: SOD1^A4V/C1 (n=68) vs. SOD1^A4V/DMSO (n=76, p=3.54×10^−5). Effect of KYL-peptide (3 mM) treatment of 60-day-old SOD1^G93A rats on disease onset (Panel B) and survival (Panel C). Artificial CSF (ACSF) was used as control. Average disease onset: 133 days (treated, n=21) versus 125 days (control, n=17, T-test p=0.044). Average survival: 148 days (treated, n=21) versus 139 days (controls, n=17, T-test p=0.041). Error bars are s.e.m.
Effect of RTK2 knockdown (established by injection of atg-RTK2 morpholino) on the percentage of affected wild-type SOD1 or mutant SOD1 (A4V, G93A, G37R) zebrafish embryos (30 hpf). Ctr-RTK2 morpholino was used as control. An embryo was considered as affected when it had more than 10% abnormally branched motor axons. Significance of mtSOD1/ctr-RTK2 (4.5 ng) vs. mtSOD1/atg-RTK2 (4.5 ng) was determined by Mann-Whitney test, * p=0.0075, ° p=0.039 and # p=0.0052. […]

[2] = test system: non-transgenic or wild-type SOD1-expressing fish; assay: axonal and total body length in non-transgenic or wild-type SOD1-expressing fish; type: in vivo; conditions: zebrafish, average ± s.e.m.
Experimental: Y-axes show motor axon length of non-transgenic (black bar) or SOD1WT-expressing (white bar) zebrafish embryos, injected with either atg-RTK2 (shaded bars, Panel A) or atg-RTK1 morpholino (shaded bars, Panel B). Ctr-RTK2 and ctr-RTK1 were used as controls. Error bars are s.e.m.
To identify disease-modifying genes in ALS in an unbiased way, knockdown screening was performed in the mutant SOD1 zebrafish model (reference 13), using a library of 303 translation blocking morpholinos (atg-mo), of which 58 were targeting genes presumed to be neuronally expressed (according to the NCBI database) and 245 randomly chosen targeting genes. […] The morpholino yielding the highest rescue in two separate experiments was studied further. It targets zebrafish receptor tyrosine kinase 2 (RTK2, also known as epha4b), which has 67% identity and 80% homology to the human orthologue EPHA4. Knockdown of RTK2 in fish expressing mutant SOD1 completely and dose-dependently rescued the motor axonopathy (both axonal length and aberrant branching) caused by three different SOD1 mutations: A4V, G93A and G37R (FIG. 1, Panels A-F; Table 2). […] Receptor tyrosine kinase 1 (RTK1, also known as epha4a), the fish paralogue of RTK2, has 83% identity and 92% homology to human EPHA4. RTK1 knockdown was dose-dependently and equally protective as RTK2 knockdown (FIG. 1, Panel G; Table 4). […]

EphA4 = EphA4 (Homo sapiens, UniProt P54764); conditions: Noberini et al.; cited from earlier work
EphA4, sequence (P54764 20-986, species assumed): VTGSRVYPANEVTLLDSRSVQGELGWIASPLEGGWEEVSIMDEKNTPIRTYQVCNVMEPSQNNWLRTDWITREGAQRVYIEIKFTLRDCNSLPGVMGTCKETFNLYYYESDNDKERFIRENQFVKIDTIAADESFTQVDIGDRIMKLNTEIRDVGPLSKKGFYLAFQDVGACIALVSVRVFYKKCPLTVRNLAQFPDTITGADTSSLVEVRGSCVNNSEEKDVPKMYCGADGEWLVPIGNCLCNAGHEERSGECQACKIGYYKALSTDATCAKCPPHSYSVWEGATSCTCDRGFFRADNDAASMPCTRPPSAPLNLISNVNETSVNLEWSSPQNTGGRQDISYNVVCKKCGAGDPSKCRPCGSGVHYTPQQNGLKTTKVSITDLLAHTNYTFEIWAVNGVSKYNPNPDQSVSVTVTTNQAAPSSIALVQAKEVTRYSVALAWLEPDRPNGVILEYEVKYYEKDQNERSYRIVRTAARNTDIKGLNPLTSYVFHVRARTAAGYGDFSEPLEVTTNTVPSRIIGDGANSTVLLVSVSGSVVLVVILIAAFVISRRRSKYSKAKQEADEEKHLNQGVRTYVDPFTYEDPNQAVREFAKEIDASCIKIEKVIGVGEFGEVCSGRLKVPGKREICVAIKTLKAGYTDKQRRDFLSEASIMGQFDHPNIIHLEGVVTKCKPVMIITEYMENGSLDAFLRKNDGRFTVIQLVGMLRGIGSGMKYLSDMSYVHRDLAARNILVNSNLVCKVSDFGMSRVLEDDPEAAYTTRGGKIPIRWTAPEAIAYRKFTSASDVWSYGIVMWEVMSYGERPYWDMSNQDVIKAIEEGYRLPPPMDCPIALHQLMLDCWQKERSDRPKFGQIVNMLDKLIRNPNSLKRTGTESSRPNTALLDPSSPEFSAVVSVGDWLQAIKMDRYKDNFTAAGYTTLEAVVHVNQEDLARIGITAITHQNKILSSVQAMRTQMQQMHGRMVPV

Compound	% affected embryos (more than 10% abnormally branched motor axons) ([1]; mtSOD1 A4V zebrafish embryos, morpholino 1.5 ng)	% affected embryos (more than 10% abnormally branched motor axons) ([1]; mtSOD1 A4V zebrafish embryos, morpholino 3.0 ng)	% affected embryos (more than 10% abnormally branched motor axons) ([1]; mtSOD1 A4V zebrafish embryos, morpholino 4.5 ng)	% affected embryos (more than 10% abnormally branched motor axons) ([1]; mtSOD1 G37R zebrafish embryos, morpholino 1.5 ng)	% affected embryos (more than 10% abnormally branched motor axons) ([1]; mtSOD1 G37R zebrafish embryos, morpholino 3.0 ng)	% affected embryos (more than 10% abnormally branched motor axons) ([1]; mtSOD1 G37R zebrafish embryos, morpholino 4.5 ng)	% affected embryos (more than 10% abnormally branched motor axons) ([1]; mtSOD1 G93A zebrafish embryos, morpholino 1.5 ng)	% affected embryos (more than 10% abnormally branched motor axons) ([1]; mtSOD1 G93A zebrafish embryos, morpholino 3.0 ng)	% affected embryos (more than 10% abnormally branched motor axons) ([1]; mtSOD1 G93A zebrafish embryos, morpholino 4.5 ng) [° %]	% affected embryos (more than 10% abnormally branched motor axons) ([1]; wtSOD1 zebrafish embryos, morpholino 4.5 ng) [%]	body length [2] [mm]	inhibition of ephrin binding to EphA4 (EphA4)
5′-AATCCAAAGGGTAGCCA-TTTTCAGG-′3 (antisense AATCCAAAGGGTAGCCATTTTCAGG; morpholino, chemistry not fully specified) [atg-RTK2]	29 (41) %	18 (44) %	8* %	34 (26) %	8 (25) %	16# %	55 (47) %	50 (54) %	23	12	2.70±0.01	–
Cc1ccc(C)n1-c1ccc(O)c(C(=O)O)c1 [compound 2]	–	–	–	–	–	–	–	–	–	–	–	selectively inhibit ephrin binding to EphA4

Reference: US9187784B2, “EphA4 is a disease modifier in motor neuron disease” (VIB VZW, priority 2011, dated 2015)
